Laboratory results as given in US11957931B2, “Compositions and methods for treating vitiligo” (YALE UNIVERSITY, priority 2017, dated 2024).
Read-outs that look alike come from different tables or passages of the source. Marks after values point to notes of the source that are not given here.

Tests used:
CXCL9 = CXCL9 ELISA of blister fluid and serum; assay type: in vivo, human; conditions: Patient 1; following treatment
Description: (§1) The Negative Pressure Instrument Model NP-4 (Electronic Diversities®, Finksburg, MD) was used to induce suction blisters (1 cm in diameter). Blisters formed at a pressure between […] negative pressure and at a constant temperature of 40° C. Once blisters formed, the blister fluid was aspirated […] through the roof using a 1 mL insulin syringe. Cells in the blister fluid were pelleted at 330×g for 10 minutes and prepared for flow cytometry. The supernatant of the blister fluid was stored at −80° C. until analysis by enzyme-linked immunosorbent-assays (ELISA) for chemokines. None of the blisters were hemorrhagic.
(§2) Chemokines were assayed using the Human CXLC9/MIG DuoSet ELISA (DY392) and Human CXCL10/IP-10 DuoSet ELISA (DY266, R&D Systems) per the manufacturer's instructions. Optical densities were measured using a Perkin Elmer EnVision 2102® multilabel reader and analyzed using a 4 parameter […] standard curve.

patients with vitiligo [1] = assay: Retrospective case series of vitiligo patients treated with tofacitinib: BSA of depigmentation / repigmentation; assay type: in vivo, human; design: key to Responder Status: R, responder; NR, non-responder
Description: (§3) This study is a retrospective case series of 10 patients seen between July 2014 and January 2017. […] Clinical and demographic information, including biological sex, age, disease duration and course, medical history, family history, and prior treatments were collected. Before initiating tofacitinib, all patients underwent baseline laboratory evaluation including comprehensive metabolic panel, complete blood cell count with differential, fasting lipid panel, QuantiFERON-TB Gold® ([…] Limited, Melbourne, Australia), and screening for HIV and hepatitis B and C. Body surface area (BSA) of depigmentation was assessed prior to and at the end of treatment. Serial laboratory monitoring, physical exams, and review of systems were used to monitor for adverse events.

patients with vitiligo [2] = tested on: patients with vitiligo
patients with vitiligo [3] = assay: Adverse event monitoring in the case series (laboratory monitoring, physical exams, review of systems); assay type: in vivo, human
Description: as §3

CXCL10 = CXCL10 ELISA of blister fluid and serum; assay type: in vivo, human; conditions: Patient 1; following treatment
Description: as §1, §2

CD8^+ T cells = assay: Suction blister sampling, flow cytometry of CD8+ T cells in blister fluid; assay type: in vivo, human; conditions: Patient 1; after 10 months of tofacitinib vs baseline; responding, non-responding and non-lesional sites
Description: The Negative Pressure Instrument Model NP-4 (Electronic Diversities®, Finksburg, MD) was used to induce suction blisters (1 cm in diameter). Blisters formed at a pressure between 10-15 mm Hg negative pressure and at a constant temperature of 40° C. Once blisters formed, the blister fluid was aspirated 135 through the roof using a 1 mL insulin syringe. Cells in the blister fluid were pelleted at 330×g for 10 minutes and prepared for flow cytometry. […] Cells were blocked with Human TruStain and incubated with an antibody cocktail for 30 minutes at 4° C. Anti-human CD45 (2D1) and CD8 (SK1) were used at 1:20 dilution. Anti-human CD3 (OKT3) was used at 1:200 dilution (BioLegend) and Fixable Viability Dye eFluor 455UV at 1:1000 (Ebioscience).

[4] = tested on: melanocyte-specific T cells (HLA pentamer positive); conditions: Patient 1; after treatment vs baseline
Description: Cells were blocked with Human TruStain and incubated with an antibody cocktail for 30 minutes at 4° C. Anti-human CD45 (2D1) and CD8 (SK1) were used at 1:20 dilution. Anti-human CD3 (OKT3) was used at 1:200 dilution (BioLegend) and Fixable Viability Dye eFluor 455UV at 1:1000 (Ebioscience).

[5] = Patient 1, earlier course, 5 mg daily, over 5 months
[6] = Patient 2, 5 mg twice daily, after 8 months
[7] = Patient 3, 5 mg twice daily plus nbUVB 150 mJ every other day, after 11 months
[8] = Patient 4, after 14 months of therapy
[9] = Case 1, 5 mg twice daily plus full-body narrowband UV-B (400-500 mJ) twice weekly, after 3 months
[10] = Cases 1 and 2, at last follow-up

C[C@@H]1CCN(C(=O)CC#N)C[C@@H]1N(C)c1ncnc2[nH]ccc12 [tofacitinib, 3-((3R,4R)-4-methyl-3-(methyl(7H-pyrrolo[2,3-d]pyrimidin-4-yl)amino)piperidin-1-yl)-3-oxopropanenitrile]
CXCL9 level in blister fluid (CXCL9): undetectable
CXCL9 level in serum (CXCL9): undetectable
Responder Status (patients with vitiligo [1]; Patient 1): R
repigmentation at other body sites, including the trunk (patients with vitiligo [1]; [5]): only minimal repigmentation
repigmentation of face, forearms and dorsal hands (patients with vitiligo [1]; [5]): near complete repigmentation
repigmentation on re-treatment (patients with vitiligo [1]; Patient 1, 5 mg daily over 6 months, started in late spring): repigmentation of the face, forearms and dorsal hands, and the upper back and shoulders, but not the lower back or other sun-protected body sites
BSA after to tofacitinib (patients with vitiligo [1]; Patient 1, BSA prior to tofacitinib 10%, treatment duration 10 months): 4%
course after stopping tofacitinib (patients with vitiligo [1]; Patient 1, tofacitinib stopped for 8 months, areas that had previously responded): depigmentation recurred
Responder Status (patients with vitiligo [1]; Patient 2): R
repigmentation of dorsal hands and lower legs (patients with vitiligo [1]; [6]): islands of repigmentation
repigmentation of face, neck (not submental area) and forearms (patients with vitiligo [1]; [6]): near-complete repigmentation
sun-protected body sites (patients with vitiligo [1]; [6]): remained unchanged
repigmentation of face, lateral and posterior neck, and forearms (patients with vitiligo [1]; Patient 2, 5 mg twice daily, over 3 months, sun exposure): partial repigmentation
BSA after to tofacitinib (patients with vitiligo [1]; Patient 2, BSA prior to tofacitinib 28%, treatment duration 8 months): 24%
maintenance of repigmentation (patients with vitiligo [1]; Patient 2, while taking tofacitinib during the winter, minimal sunlight exposure): Repigmentation was maintained
Responder Status (patients with vitiligo [1]; Patient 3): R
repigmentation of all other body sites (patients with vitiligo [1]; [7]): innumerable islands of repigmentation
repigmentation of the back (patients with vitiligo [1]; [7]): > 75%
repigmentation of the face (patients with vitiligo [1]; [7]): complete repigmentation
BSA after to tofacitinib (patients with vitiligo [1]; Patient 3, BSA prior to tofacitinib 39%, treatment duration 11 months, concomitant nbUVB): 24%
Responder Status (patients with vitiligo [1]; Patient 4): R
BSA after to tofacitinib (patients with vitiligo [1]; Patient 4, BSA prior to tofacitinib 10%, treatment duration 14 months): 8%
repigmentation of hands and sun-protected body sites (patients with vitiligo [1]; [8]): neither the hands nor sun-protected body sites, however, showed evidence of repigmentation
repigmentation of the face (patients with vitiligo [1]; [8]): near-complete repigmentation
Responder Status (patients with vitiligo [1]; Patient 5): R
response of vitiligo to tofacitinib alone (patients with vitiligo [1]; Patient 5, 5-10 mg twice daily for 1 year, before nbUVB, hands disguised with makeup): unresponsive
BSA after to tofacitinib (patients with vitiligo [1]; Patient 5, BSA prior to tofacitinib 2%, treatment duration 10 months, islands of repigmentation after 12 nbUVB treatments did not change BSA appreciably): 2%*
repigmentation after adding nbUVB hand phototherapy (patients with vitiligo [1]; Patient 5, concomitant nbUVB, approximately 12 treatments (most recent dose 350 mJ)): islands of repigmentation were apparent
Responder Status (patients with vitiligo [1]; Patient 6): NR
BSA after to tofacitinib (patients with vitiligo [1]; Patient 6, BSA prior to tofacitinib 7%, treatment duration 3 months): 7%
Responder Status (patients with vitiligo [1]; Patient 7): NR
BSA after to tofacitinib (patients with vitiligo [1]; Patient 7, BSA prior to tofacitinib 1%, treatment duration 9 months): 1%
Responder Status (patients with vitiligo [1]; Patient 8): NR
BSA after to tofacitinib (patients with vitiligo [1]; Patient 8, BSA prior to tofacitinib 4%, treatment duration 15 months): 4%
Responder Status (patients with vitiligo [1]; Patient 9): NR
BSA after to tofacitinib (patients with vitiligo [1]; Patient 9, BSA prior to tofacitinib 6%, treatment duration 4 months): 6%
Responder Status (patients with vitiligo [1]; Patient 10): NR
BSA after to tofacitinib (patients with vitiligo [1]; Patient 10, BSA prior to tofacitinib 100%, treatment duration 11 months): 100%
mean decrease of BSA involvement with vitiligo (patients with vitiligo [1]; in 5/10 patients, tofacitinib 5-10 mg QD-BID, average 9.5 months): 5.4 % BSA
overall finding: repigmentation and light exposure (patients with vitiligo [1]; sunlight or nbUVB phototherapy): only led to repigmentation when there was concomitant light exposure
repigmentation (patients with vitiligo [1]; the other 5 of 10 patients, tofacitinib 5-10 mg QD-BID): did not achieve any repigmentation
repigmentation of neck, chest, forearms and shins (patients with vitiligo [2]; [9]): ≥ 75%
repigmentation of the dorsal hands (patients with vitiligo [2]; [9]): only minimal freckling
repigmentation of the face (patients with vitiligo [2]; [9]): nearly complete repigmentation
repigmentation of the face (patients with vitiligo [2]; Case 2, 5 mg twice daily plus narrowband UV-B (360-500 mJ) 2 to 3 times weekly to only the face, after 3 months): about 50%
facial repigmentation (patients with vitiligo [2]; Case 2, 5 mg twice daily plus narrowband UV-B (360-500 mJ) 2 to 3 times weekly to only the face, after 6 months): about 75%
repigmentation at the other body sites (no UV-B) (patients with vitiligo [2]; Case 2, 5 mg twice daily, narrowband UV-B to only the face): No repigmentation occurred
adverse effects (patients with vitiligo [2]; [10]): no adverse effects
complete blood cell count, liver function tests, serum creatinine, fasting lipids (patients with vitiligo [2]; [10]): no abnormalities
serious adverse events (patients with vitiligo [3]; 10 patients): no serious adverse events
adverse events overall (patients with vitiligo [3]; in vivo): mild and infrequent
arthralgias (patients with vitiligo [3]; of 10 patients): one patient reported arthralgias
mild elevations of lipids (patients with vitiligo [3]; of 10 patients): 4 patients
upper respiratory infection (most common side effect) (patients with vitiligo [3]; of 10 patients): 2 patients
weight gain (patients with vitiligo [3]; reported by one patient of 10): 5 pounds
CXCL10 level in blister fluid (CXCL10): undetectable
CXCL10 level in serum (CXCL10): undetectable
CD8+ T cell number in blister fluid (CD8^+ T cells): absolute numbers in each site were reduced
percentage of melanocyte-specific T cells (HLA pentamer positive) in PBMCs [4]: did not change with tofacitinib treatment, and even increased slightly
